Measured values: US12649746B2, “Ketorolaco derivative, pharmaceutical composition and preparation method therefor and use thereof” (NANJING HERON PHARMACEUTICAL SCIENCE AND TECHNOLOGY CO., …, priority 2020, dated 2026)
Values belong to the molecule of their own block, whether it stands above or below them.

Experiments:
[1] = Stability study of levorotatory enantiomer of compounds in solvent (MCT); format: physicochemical; details: MCT solution; for Isomer (%): dextrorotatory form
Procedure: 2. Test method: the samples were prepared according to Table 2, wherein each sample was dispensed into 10 vials according to the lofting volume, and the samples were lofted according to Table 3.
4. The related substance was determined according to high performance liquid chromatography (General Chapter 0512, China Pharmacopoeia, 2015 Edition).
(1) Chromatographic conditions: the chromatography column was Agilent ZORBAX SB-C8, 4.6 mm×250 mm, 5 μm, and 0.1% phosphoric acid solution-acetonitrile (50:50) was used as a mobile phase; the detection wavelength was […]; the flow rate was 1.0 mL/min; the column temperature was 40° C., and linear gradient elution was performed according to the following table;
(§1) (2) Determination method: an appropriate amount of the product was weighed precisely, a diluent (absolute ethanol) was added and shaken to dissolve, and quantitatively diluted to give a solution containing 0.4 mg per 1 mL, the solution was […] by vortex for 30 s, and filtered with PTFE filter membrane (0.22 μm, JINTENG), and the filtrate was collected as a test sample solution. 10 μL of the solution was weighed precisely and injected into a liquid chromatograph, and a chromatogram was recorded; if an impurity peak existed in the chromatogram of the test sample solution, calculation was performed according to a peak area normalization method to give the target product.
5. Isomer determination was performed according to high performance liquid chromatography (General Chapter 0512, China Pharmacopoeia, 2015 Edition).
(1) Chromatographic conditions: cellulose-tris(3,5-dimethylphenylcarbamate)silica gel was used as filler (Chiralcel OD-H, 250×4.6 mm, 5 μm); n-hexane-isopropanol (90:10) was used as a mobile phase, and isocratic elution was performed for 25 min at a flow rate of 1.0 mL/min; the column temperature was 35° C.; the detection wavelength was 310 nm.
as §1, with “(n-hexane-isopropanol (90:10))” for “(absolute ethanol)”, “about 1.0” for “0.4”, “20” for “10”, “isomer” for “impurity”

[2] = By-product toxicity test (metabolic byproducts in the human body); details: for Metabolic by-products in human body: by the metabolic pathways of the compounds in the human body; for Toxicity: toxicity of the metabolic by-products in human body
[3] = High temperature stability study of compounds (60° C.); format: physicochemical; details: in the dark; for Ketorolac (%): related substance
Procedure: Test protocol: the compounds prepared in the present disclosure were placed in a colorless and transparent vial, placed in the dark at a high temperature (60° C.), and were sampled for day 0, day 5 and day 10, respectively, and the purity of the compounds and the change of the related substance (ketorolac) were determined.

Ketorolac (%) ([1]; 5° C., Day 5): 0.03%
Purity (%) ([1]; 5° C., Day 5): 99.55%
Ketorolac (%) ([1]; 5° C., Day 15): 0.02%
Purity (%) ([1]; 5° C., Day 15): 99.65%
Ketorolac (%) ([1]; 5° C., Day 30): 0.03%
Purity (%) ([1]; 5° C., Day 30): 99.52%
Ketorolac (%) ([1]; 5° C., day 0): 0.02%
Purity (%) ([1]; 5° C., day 0): 99.71%
Ketorolac (%) ([1]; 25° C., Day 5): 0.03%
Purity (%) ([1]; 25° C., Day 5): 99.52%
Ketorolac (%) ([1]; 25° C., Day 15): 0.03%
Purity (%) ([1]; 25° C., Day 15): 99.63%
Ketorolac (%) ([1]; 25° C., Day 30): 0.04%
Purity (%) ([1]; 25° C., Day 30): 99.48%
Ketorolac (%) ([1]; 25° C., day 0): 0.02%
Purity (%) ([1]; 25° C., day 0): 99.71%
Ketorolac (%) ([1]; 60° C., Day 5): 0.05%
Purity (%) ([1]; 60° C., Day 5): 99.52%
Ketorolac (%) ([1]; 60° C., Day 15): 0.12%
Purity (%) ([1]; 60° C., Day 15): 99.51%
Ketorolac (%) ([1]; 60° C., Day 30): 0.24%
Purity (%) ([1]; 60° C., Day 30): 99.27%
Ketorolac (%) ([1]; 60° C., day 0): 0.02%
Purity (%) ([1]; 60° C., day 0): 99.71%
Isomer (%) ([1]; 5° C., Day 5): 2.47%
Isomer (%) ([1]; 5° C., Day 15): 2.6%
Isomer (%) ([1]; 5° C., Day 30): 2.58%
Isomer (%) ([1]; 5° C., day 0): 2.46%
Isomer (%) ([1]; 25° C., Day 5): 2.47%
Isomer (%) ([1]; 25° C., Day 15): 2.6%
Isomer (%) ([1]; 25° C., Day 30): 2.59%
Isomer (%) ([1]; 25° C., day 0): 2.46%
Isomer (%) ([1]; 60° C., Day 5): 2.48%
Isomer (%) ([1]; 60° C., Day 15): 2.61%
Isomer (%) ([1]; 60° C., Day 30): 2.63%
Isomer (%) ([1]; 60° C., day 0): 2.46%
Structure (SMILES): CCC(OC(=O)OC(C)C)OC(=O)[C@H]1CCn2c(C(=O)c3ccccc3)ccc21 (stereo partly drawn) [N16(S)]

Total main peak purity (%) ([3]; Day 0): 96.36%
Total main peak purity (%) ([3]; Day 5): 94.28%
Total main peak purity (%) ([3]; Day 10): 94.41%
Ketorolac (%) ([3]; Day 0): 0.05%
Ketorolac (%) ([3]; Day 5): 0.23%
Ketorolac (%) ([3]; Day 10): 0.37%
Structure (SMILES): CC(OC(=O)OC1CCCCC1)OC(=O)C1CCn2c(C(=O)c3ccccc3)ccc21 (stereo not drawn) [N10]
Metabolic by-products in human body [2]: Acetaldehyde and cyclohexanol
Toxicity [2]: relatively low toxicity of byproducts

Structure (SMILES): CC(C)OC(=O)OC(OC(=O)C1CCn2c(C(=O)c3ccccc3)ccc21)C(C)C (stereo not drawn) [N19]
Total main peak purity (%) ([3]; Day 0): 96.30%
Total main peak purity (%) ([3]; Day 5): 94.61%
Total main peak purity (%) ([3]; Day 10): 94.41%
Ketorolac (%) ([3]; Day 0): 0.07%
Ketorolac (%) ([3]; Day 5): 0.09%
Ketorolac (%) ([3]; Day 10): 0.12%

Structure (SMILES): COC(=O)OC(C)OC(=O)C1CCn2c(C(=O)c3ccccc3)ccc21 (stereo not drawn) [N13]
Metabolic by-products in human body [2]: Acetaldehyde and methanol
Toxicity [2]: Methanol is more toxic

Structure (SMILES): CC(OC(=O)C1CCn2c(C(=O)c3ccccc3)ccc21)OC(=O)C(C)(C)C (stereo not drawn) [N7]
Metabolic by-products in human body [2]: Acetaldehyde and pivalic acid
Toxicity [2]: Pivalic acid is more toxic
Total main peak purity (%) ([3]; Day 0): 90.83%
Total main peak purity (%) ([3]; Day 5): 88.66%
Total main peak purity (%) ([3]; Day 10): 88.59%
Ketorolac (%) ([3]; Day 0): 0.18%
Ketorolac (%) ([3]; Day 5): 0.25%
Ketorolac (%) ([3]; Day 10): 0.32%
